How the values were obtained:
[1] = NaVC consumption on ultra heat treat of the formulated soymilk powder; format: physicochemical
From the text: As shown in Table (26), the formulated soymilk powder consists of NaVC (sodium vitamin C), lactic acid bacteria, saccharomycete, and maltodextrin, in which the lactic acid bacteria is NTU 101 lactic acid bacteria powder, the saccharomycete is yeast powder with vitamin B complex. Moreover, it must note that, when manufacturing the formulated soymilk powder, it must pre-add 25% NaVC in the formulated soymilk powder because there has 25% NaVC consumption when processing ultra heat treat of the formulated soymilk powder.

[2] = second experiment: releasable iron in soymilk with iron salts added by concentration gradients
From the text: (§1) In which, “in vitro digestion and dialysis” is used in the experiments for determining the releasable iron in human body after the foods are digested.

[3] = aqueous solution of ferrous sulfate with 100 ppm iron ions
From the text: as §1
Firstly, iron(II) sulfate heptahydrate is used as a standard in the experiment, and the in vitro digestion and dialysis of the iron(II) sulfate heptahydrate is done.

[4] = soymilk with 20 ppm iron as ferrous sulfate
From the text: as §1
Next, in the second experiment, it respectively adds different additive dosage of vitamin C, sodium vitamin C, potassium vitamin C, and calcium vitamin C into the soymilk with 20 ppm ferrous sulfate for testing the effect of encouraging the release of iron ions.

[5] = background, researches; cited from earlier work

## O=C1O[C@H]([C@@H](O)CO)C([O-])=C1O.[Na+] [NaVC, sodium ascorbate]
[1]
  NaVC consumption when processing ultra heat treat: 25%

## O.O.O.O.O.O.O.O=S(=O)([O-])[O-].[Fe+2] [ferrous sulfate, iron(II) sulfate heptahydrate]
[2]; additive dosage of iron 10 ppm
  concentration of releasable iron: 1.56 ppm
[2]; additive dosage of iron 20 ppm
  concentration of releasable iron: 1.76 ppm
[2]; additive dosage of iron 30 ppm
  concentration of releasable iron: 2.47 ppm
[2]; additive dosage of iron 40 ppm
  concentration of releasable iron: 2.62 ppm
[2]; additive dosage of iron 50 ppm
  concentration of releasable iron: 2.75 ppm
[2]; additive dosage of iron 60 ppm
  concentration of releasable iron: 3.27 ppm
[2]; additive dosage of iron 70 ppm
  concentration of releasable iron: 3.72 ppm
[2]; point where releasable iron starts to rise with additive dosage
  initially inhibiting concentration: 20 ppm
[3]
  iron ions naturally inhibited: 49.61%
  iron ions released after processing by gastric and intestinal fluid: 50.39%
[4]
  releasable iron concentration before adding the ascorbic acid iron: 1.90 ppm
  the most effective additive dosage for ascorbic acid iron: 100 mg/100 ml
[4]; after/before adding the ascorbic acid iron
  release promoting rate of iron: 389%
[4]; at the most effective additive dosage 100
  releasable iron concentration after adding the ascorbic acid iron: 7.54 ppm

## heme iron
[5]
  average absorption rate: 25%
